{
  "source": "patent US5086071A",
  "about": "“2,5,6,7-tetranor-4,8-inter-m-phenylene PGI2 derivatives” (Toray Industries, Inc., priority 1989, dated 1992)",
  "key": {"stomach": {"system": "stomach", "assay": "Gastric Cytoprotection (0.2N NaOH-induced stomach lesion, ulcer index)", "assay_type": "in vivo", "details": "test compound 30 minutes before oral 0.2N NaOH; killed one hour later; read-out: ED50 (dose which reduces an ulcer index by 50% of that in a control animal)", "method": "Gastric cytoprotection was measured according to the method of A. Robert, et al. (Gastroenterlogy 77 (3), 443 (1979).\nThirty minutes later after the test compound was administered, the animals were given orally 0.2N NaOH and killed one hour later by chloroform anesthesia.\nThe stomach was taken out, fixed with 5% formalin solution, and opened along greater curvature.\nThe length of the lesion brought about in the stomach is measured and expressed in terms of the ulcer index. Gastric cytoprotection activity is expressed in Table 1 below as an ED50 value (dose in μg/Kg which reduces an ulcer index by 50% of that in a control animal (ulcer index: 100%))."}, "gastric acid secretion": {"system": "gastric acid secretion", "assay": "Gastric Acid Secretion Inhibition (pentagastrin-stimulated, perfused stomach)", "assay_type": "in vivo, rat (male SD rats)", "details": "intravenous; pentagastrin 0.05 μg/Kg/min; relative to PGE2 set as 1", "method": "Male SD rats were operated by means of ventrotomy under urethane anesthesia. A double cannula was inserted into the fundus of the rat. The stomach lumen was continuously perfused with a physiological saline solution. The perfusate was drawn into the pH meter to continuously measure its pH (M. Ghosh, H. Schild, Br. J. Pharmacol. 13, 54 (1958)).\nPentagastrin was infused continuously at a rate of 0.05 μg/Kg/min. to stimulate gastric acid secretion.\nThe test compounds were injected intravenuously into the femoral vein when the pH reached a steady state at about 4.0.\nGastric acid secretion inhibition activity is calculated from the area made by pH augmentation against time.\nThe potency of the compounds is compared and expressed in terms of PGE2 ratio where PGE2 is set as 1."}, "platelet aggregation": {"system": "platelet aggregation", "assay": "Inhibiting Effect of Platelet Aggregation (ADP-induced, human platelet rich plasma)", "assay_type": "cell-based", "details": "human PRP, ADP 10 μM, test compound added one minute prior to ADP, read-out: ED50 (text: IC50), inhibition of platelet aggregation", "method": "Blood collected from human intermediate cubital vein was centrifuged at 800 rpm for 10 minutes. The supernatant was taken out as platelet rich plasma (PRP). Aliquots of PRP were dispensed into test tubes to which […] (ADP) was added (final concentration: 10 μM) to induce platelet aggregation. The extent of platelet aggregation is determined by an aggregometer (Rika Denki, Tokyo) as a change of turbidity. The test compound is added in one minute prior to the addition pf ADP. IC50 values are calculated as a concentration of test compound which inhibits platelet aggregation by 50%."}, "[1]": {"details": "neutral aqueous solution; cited from earlier work"}, "[2]": {"details": "cited from earlier work"}},
  "data": [
    {"smiles": "CCCCC[C@H](O)/C=C/[C@@H]1[C@H]2c3cccc(/C=C/C(=O)O)c3O[C@H]2C[C@H]1O", "note": "[Compound 24, d-(3E)-2,5,6,7-tetranor-3,4-didehydro-4,8-inter-m-phenylene PGI2]", "values": [
      {"measurement": "ED50", "setting": "stomach", "result": 21.4, "unit": "µg/kg"},
      {"measurement": "Gastric Antisecretory Activity, Relative Potency Ratio [PGE2 = 1.0]", "setting": "gastric acid secretion", "result": 23},
      {"measurement": "IC50", "setting": "platelet aggregation", "result": 0.4, "unit": "ng/mL"}
    ]},
    {"smiles": "CCCCC(C)[C@H](O)/C=C/[C@@H]1[C@H]2c3cccc(/C=C/C(=O)O)c3O[C@H]2C[C@H]1O", "note": "(stereo partly drawn) [Compound 28, d-(3E)-16-methyl-2,5,6,7-tetranor-3,4-didehydro-4,8-inter-m-phenylene PGI2]", "values": [
      {"measurement": "ED50", "setting": "stomach", "result": 0.26, "unit": "µg/kg"},
      {"measurement": "Gastric Antisecretory Activity, Relative Potency Ratio [PGE2 = 1.0]", "setting": "gastric acid secretion", "result": 55},
      {"measurement": "IC50", "setting": "platelet aggregation", "result": 1.6, "unit": "ng/mL"}
    ]},
    {"smiles": "CCCC[C@H](C)C[C@H](O)/C=C/[C@@H]1[C@H]2c3cccc(/C=C/C(=O)O)c3O[C@H]2C[C@H]1O", "note": "[Compound 31, d-(3E, 17S)-17-methyl-20a-homo-2,5,6,7-tetranor-3,4-didehydro-4,8-inter-m-phenylene PGI2]", "values": [
      {"measurement": "IC50", "setting": "platelet aggregation", "result": 0.14, "unit": "ng/mL"}
    ]},
    {"smiles": "CCCCC(C)(C)[C@H](O)/C=C/[C@@H]1[C@H]2c3cccc(/C=C/C(=O)O)c3O[C@H]2C[C@H]1O", "note": "[Compound 34, d-(3E)-16,16-dimethyl-2,5,6,7-tetranor-3,4-didehydro-4,8-inter-m-phenylene PGI2]", "values": [
      {"measurement": "ED50", "setting": "stomach", "result": 1.6, "unit": "µg/kg"},
      {"measurement": "Gastric Antisecretory Activity, Relative Potency Ratio [PGE2 = 1.0]", "setting": "gastric acid secretion", "result": 36},
      {"measurement": "IC50", "setting": "platelet aggregation", "result": 45, "unit": "ng/mL"}
    ]},
    {"smiles": "O=C(O)/C=C/c1cccc2c1O[C@H]1C[C@@H](O)[C@H](/C=C/[C@@H](O)c3ccccc3)[C@@H]21", "note": "[Compound 37, d-(3E)-15-phenyl-2,5,6,7,16,17,18,19,20-nonanor-3,4-didehydro-4,8-inter-m-phenylene PGI2]", "values": [
      {"measurement": "ED50", "setting": "stomach", "result": 0.83, "unit": "µg/kg"},
      {"measurement": "Gastric Antisecretory Activity, Relative Potency Ratio [PGE2 = 1.0]", "setting": "gastric acid secretion", "result": 83},
      {"measurement": "IC50", "setting": "platelet aggregation", "result": 0.56, "unit": "ng/mL"}
    ]},
    {"smiles": "O=C(O)/C=C/c1cccc2c1O[C@H]1C[C@@H](O)[C@H](/C=C/[C@@H](O)c3ccc(Cl)cc3)[C@@H]21", "note": "[Compound 40, d-(3E)-15-(p-chlorophenyl)-2,5,6,7,16,17,18,19,20-nonanor-3,4-didehydro-4,8-inter-m-phenylene PGI2]", "values": [
      {"measurement": "ED50", "setting": "stomach", "result": 0.46, "unit": "µg/kg"}
    ]},
    {"smiles": "O=C(O)/C=C/c1cccc2c1O[C@H]1C[C@@H](O)[C@H](/C=C/[C@@H](O)c3cccc(F)c3)[C@@H]21", "note": "[Compound 43, d-(3E)-15-(m-fluorophenyl)-2,5,6,7,16,17,18,19,20-nonanor-3,4-didehydro-4,8-inter-m-phenylene PGI2]", "values": [
      {"measurement": "ED50", "setting": "stomach", "result": 0.39, "unit": "µg/kg"}
    ]},
    {"smiles": "CC(C)(c1ccccc1)[C@H](O)/C=C/[C@@H]1[C@H]2c3cccc(/C=C/C(=O)O)c3O[C@H]2C[C@H]1O", "note": "[Compound 51, d-(3E)-16-methyl-16-phenyl-2,5,6,7,18,19,20-heptanor-3,4-didehydro-4,8-inter-m-phenylene PGI2]", "values": [
      {"measurement": "IC50", "setting": "platelet aggregation", "result": 1800, "unit": "ng/mL"}
    ]},
    {"smiles": "O=C(O)/C=C/c1cccc2c1O[C@H]1C[C@@H](O)[C@H](/C=C/[C@@H](O)C3CCCC3)[C@@H]21", "note": "[Compound 57, d-(3E)-15-cyclopentyl-2,5,6,7,16,17,18,19,20-nonanor-3,4-didehydro-4,8-inter-m-phenylene PGI2]", "values": [
      {"measurement": "ED50", "setting": "stomach", "result": 5.07, "unit": "µg/kg"}
    ]},
    {"smiles": "O=C(O)/C=C/c1cccc2c1O[C@H]1C[C@@H](O)[C@H](/C=C/[C@@H](O)C3CCCCC3)[C@@H]21", "note": "[Compound 60, d-(3E)-15-cyclohexyl-2,5,6,7,16,17,18,19,20-nonanor-3,4-didehydro-4,8-inter-m-phenylene PGI2]", "values": [
      {"measurement": "ED50", "setting": "stomach", "result": 0.88, "unit": "µg/kg"},
      {"measurement": "Gastric Antisecretory Activity, Relative Potency Ratio [PGE2 = 1.0]", "setting": "gastric acid secretion", "result": 14},
      {"measurement": "IC50", "setting": "platelet aggregation", "result": 0.35, "unit": "ng/mL"}
    ]},
    {"smiles": "CCCOC[C@H](O)/C=C/[C@@H]1[C@H]2c3cccc(/C=C/C(=O)O)c3O[C@H]2C[C@H]1O", "note": "[Compound 69, d-(3E)-2,5,6,7-tetranor-17-oxa-3,4-didehydro-4,8-inter-m-phenylene PGI2]", "values": [
      {"measurement": "ED50", "setting": "stomach", "result": 6.5, "unit": "µg/kg"},
      {"measurement": "Gastric Antisecretory Activity, Relative Potency Ratio [PGE2 = 1.0]", "setting": "gastric acid secretion", "result": 10},
      {"measurement": "IC50", "setting": "platelet aggregation", "result": 0.58, "unit": "ng/mL"}
    ]},
    {"smiles": "CCOCC(C)(C)[C@H](O)/C=C/[C@@H]1[C@H]2c3cccc(/C=C/C(=O)O)c3O[C@H]2C[C@H]1O", "note": "[Compound 72, d-(3E)-16,16-dimethyl-2,5,6,7-tetranor-18-oxa-3,4-didehydro-4,8-inter-m-phenylene PGI2]", "values": [
      {"measurement": "ED50", "setting": "stomach", "result": 2.7, "unit": "µg/kg"},
      {"measurement": "Gastric Antisecretory Activity, Relative Potency Ratio [PGE2 = 1.0]", "setting": "gastric acid secretion", "result": 9},
      {"measurement": "IC50", "setting": "platelet aggregation", "result": 100, "unit": "ng/mL"}
    ]},
    {"smiles": "O=C(O)/C=C/c1cccc2c1O[C@H]1C[C@@H](O)[C@H](/C=C/[C@@H](O)COc3ccccc3)[C@@H]21", "note": "[Compound 75, d-(3E)-16-phenoxy-2,5,6,7,17,18,19,20-octanor-3,4-didehydro-4,8-inter-m-phenylene PGI2]", "values": [
      {"measurement": "ED50", "setting": "stomach", "result": 0.89, "unit": "µg/kg"},
      {"measurement": "Gastric Antisecretory Activity, Relative Potency Ratio [PGE2 = 1.0]", "setting": "gastric acid secretion", "result": 73},
      {"measurement": "IC50", "setting": "platelet aggregation", "result": 29, "unit": "ng/mL"}
    ]},
    {"smiles": "C[C@@H](Oc1ccccc1)[C@H](O)/C=C/[C@@H]1[C@H]2c3cccc(/C=C/C(=O)O)c3O[C@H]2C[C@H]1O", "note": "[Compound 77, d-(3E,16R)-16-phenoxy-2,5,6,7,18,19,20-heptanor-3,4-didehydro-4,8-inter-m-phenylene PGI2]", "values": [
      {"measurement": "ED50", "setting": "stomach", "result": 0.4, "unit": "µg/kg"},
      {"measurement": "Gastric Antisecretory Activity, Relative Potency Ratio [PGE2 = 1.0]", "setting": "gastric acid secretion", "result": 83},
      {"measurement": "IC50", "setting": "platelet aggregation", "result": 14, "unit": "ng/mL"}
    ]},
    {"smiles": "CC(C)(Oc1ccccc1)[C@H](O)/C=C/[C@@H]1[C@H]2c3cccc(/C=C/C(=O)O)c3O[C@H]2C[C@H]1O", "note": "[Compound 79, d-(3E)-16-methyl-16-phenoxy-2,5,6,7,18,19,20-heptanor-3,4-didehydro-4,8-inter-m-phenylene PGI2]", "values": [
      {"measurement": "ED50", "setting": "stomach", "result": 0.5, "unit": "µg/kg"},
      {"measurement": "Gastric Antisecretory Activity, Relative Potency Ratio [PGE2 = 1.0]", "setting": "gastric acid secretion", "result": 112}
    ]},
    {"smiles": "CCCCC[C@H](O)/C=C/[C@@H]1[C@H]2C/C(=C/CCCC(=O)O)O[C@H]2C[C@H]1O", "note": "[PGI2, Prostaglandin I2]", "values": [
      {"measurement": "stability", "setting": "[1]", "result": "extremely unstable even in neutral aqueous solution"},
      {"measurement": "duration of physiological activities in vivo", "setting": "[2]", "result": "only short duration of physiological activities in vivo"},
      {"measurement": "metabolism in vivo", "setting": "[2]", "result": "metabolized quickly in vivo"}
    ]}
  ]
}
